# Experimental data reported in patent US6358885B1, “Substituted phenylheterocyclic herbicides” (Mississippi State University, priority 1992, dated 2002).
# Key:
# barley = assay: Test B preemergence/postemergence greenhouse plant response rating 0 to 10; format: in vivo, Hordeum vulgare; details: for Plant response rating, Barley: 0 to 10 scale
# Summary of the method: (§1)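 Both application timings were run together: seeds got compound preemergence, and established seedlings (two to eighteen cm) got it postemergence. Non-phytotoxic solvent carried the chemical. Ratings are visual, versus controls, at twelve to sixteen days.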
# rape = assay: as above; format: in vivo, Brassica napus; details: for Plant response rating, Rape: 0 to 10 scale
# Summary of the method: as §1
# chickweed = assay: Test C preemergence/postemergence greenhouse plant response rating 0 to 100; format: in vivo, Stellaria media; details: for Plant response rating, Chickweed: 125 g/ha, 0 to 100 scale
# Summary of the method: (§2)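 Compounds in non-phytotoxic solvent applied preemergence to sandy loam one day after planting, postemergence at the 1–4 leaf stage, or to ~2.5 cm floodwater over silt loam.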
# soybean = assay: Test B preemergence/postemergence greenhouse plant response rating 0 to 10; format: in vivo, Glycine max; details: for Plant response rating, Soybean: 0 to 10 scale
# Summary of the method: as §1
# velvetleaf = assay: as above; format: in vivo, Abutilon theophrasti; details: for Plant response rating, Velvetleaf: 0 to 10 scale
# Summary of the method: as §1
# lambsquarters = assay: Test C preemergence/postemergence greenhouse plant response rating 0 to 100; format: in vivo, Chenopodium album; details: for Plant response rating Lambsquarters: 125 g/ha, 0 to 100 scale
# Summary of the method: as §2
# wild buckwheat = assay: as above; format: in vivo, Polygonum convolvulus; details: for Plant response rating, Wild buckwheat: 125 g/ha, 0 to 100 scale
# Summary of the method: as §2
# blackgrass = assay: Test B preemergence/postemergence greenhouse plant response rating 0 to 10; format: in vivo, Alopecurus myosuroides; details: for Plant response rating, Blackgrass: 0 to 10 scale
# Summary of the method: as §1
# sugar beet = assay: Test C preemergence/postemergence greenhouse plant response rating 0 to 100; format: in vivo, Beta vulgaris; details: for Plant response rating, Sugar beet: 125 g/ha, 0 to 100 scale
# Summary of the method: as §2
smiles,measurement,setting,value
CCOCOc1cc(-c2nn3c(c2Cl)CCCC3)c(F)cc1Cl [Compound 59],"Plant response rating, Barley","barley; POSTEMERGENCE, Rate 50 g/ha",4
same,"Plant response rating, Barley","barley; PREEMERGENCE, Rate 50 g/ha",2
same,"Plant response rating (0 to 10 scale), Barley","barley; PREEMERGENCE, Rate 200 g/ha",5
same,"Plant response rating, Barley","barley; Rate 200 g/ha, POSTEMERGENCE",4
same,"Plant response rating, Rape","rape; POSTEMERGENCE, Rate 50 g/ha",10
same,"Plant response rating, Rape","rape; PREEMERGENCE, Rate 50 g/ha",5
same,"Plant response rating (0 to 10 scale), Rape","rape; PREEMERGENCE, Rate 200 g/ha",10
same,"Plant response rating, Rape","rape; Rate 200 g/ha, POSTEMERGENCE",10
same,"Plant response rating, Chickweed",chickweed; POSTEMERGENCE,90
same,"Plant response rating (0 to 100), Chickweed","chickweed; POSTEMERGENCE, Rate 2 g/ha",20
same,"Plant response rating, Chickweed",chickweed; PREEMERGENCE,30
same,"Plant response rating (0 to 100), Chickweed","chickweed; PREEMERGENCE, Rate 2 g/ha",0
same,"Plant response rating (0 to 100), Chickweed","chickweed; Rate 8 g/ha, POSTEMERGENCE",40
same,"Plant response rating (0 to 100), Chickweed","chickweed; Rate 8 g/ha, PREEMERGENCE",0
same,"Plant response rating (0 to 100), Chickweed","chickweed; Rate 31 g/ha, POSTEMERGENCE",70
same,"Plant response rating (0 to 100), Chickweed","chickweed; Rate 31 g/ha, PREEMERGENCE",10
same,"Plant response rating, Soybean","soybean; POSTEMERGENCE, Rate 50 g/ha",8
same,"Plant response rating, Soybean","soybean; PREEMERGENCE, Rate 50 g/ha",0
same,"Plant response rating (0 to 10 scale), Soybean","soybean; PREEMERGENCE, Rate 200 g/ha",4
same,"Plant response rating, Soybean","soybean; Rate 200 g/ha, POSTEMERGENCE",7
same,"Plant response rating, Velvetleaf","velvetleaf; POSTEMERGENCE, Rate 50 g/ha",8
same,"Plant response rating, Velvetleaf","velvetleaf; PREEMERGENCE, Rate 50 g/ha",10
same,"Plant response rating (0 to 10 scale), Velvetleaf","velvetleaf; PREEMERGENCE, Rate 200 g/ha",10
same,"Plant response rating, Velvetleaf","velvetleaf; Rate 200 g/ha, POSTEMERGENCE",10
same,Plant response rating Lambsquarters,lambsquarters; POSTEMERGENCE,95
same,"Plant response rating (0 to 100), Lambsquarters","lambsquarters; POSTEMERGENCE, Rate 2 g/ha",30
same,Plant response rating Lambsquarters,lambsquarters; PREEMERGENCE,100
same,"Plant response rating (0 to 100), Lambsquarters","lambsquarters; PREEMERGENCE, Rate 2 g/ha",0
same,"Plant response rating (0 to 100), Lambsquarters","lambsquarters; Rate 8 g/ha, POSTEMERGENCE",70
same,"Plant response rating (0 to 100), Lambsquarters","lambsquarters; Rate 8 g/ha, PREEMERGENCE",95
same,"Plant response rating (0 to 100), Lambsquarters","lambsquarters; Rate 31 g/ha, POSTEMERGENCE",85
same,"Plant response rating (0 to 100), Lambsquarters","lambsquarters; Rate 31 g/ha, PREEMERGENCE",100
same,"Plant response rating, Wild buckwheat",wild buckwheat; POSTEMERGENCE,100
same,"Plant response rating (0 to 100), Wild buckwheat","wild buckwheat; POSTEMERGENCE, Rate 2 g/ha",100
same,"Plant response rating, Wild buckwheat",wild buckwheat; PREEMERGENCE,100
same,"Plant response rating (0 to 100), Wild buckwheat","wild buckwheat; PREEMERGENCE, Rate 2 g/ha",0
same,"Plant response rating (0 to 100), Wild buckwheat","wild buckwheat; Rate 8 g/ha, POSTEMERGENCE",100
same,"Plant response rating (0 to 100), Wild buckwheat","wild buckwheat; Rate 8 g/ha, PREEMERGENCE",0
same,"Plant response rating (0 to 100), Wild buckwheat","wild buckwheat; Rate 31 g/ha, POSTEMERGENCE",100
same,"Plant response rating (0 to 100), Wild buckwheat","wild buckwheat; Rate 31 g/ha, PREEMERGENCE",50
same,"Plant response rating, Blackgrass","blackgrass; POSTEMERGENCE, Rate 50 g/ha",4
same,"Plant response rating, Blackgrass","blackgrass; PREEMERGENCE, Rate 50 g/ha",4
same,"Plant response rating (0 to 10 scale), Blackgrass","blackgrass; PREEMERGENCE, Rate 200 g/ha",5
same,"Plant response rating, Blackgrass","blackgrass; Rate 200 g/ha, POSTEMERGENCE",5
same,"Plant response rating, Sugar beet",sugar beet; POSTEMERGENCE,100
same,"Plant response rating (0 to 100), Sugar beet","sugar beet; POSTEMERGENCE, Rate 2 g/ha",90
same,"Plant response rating, Sugar beet",sugar beet; PREEMERGENCE,100
same,"Plant response rating (0 to 100), Sugar beet","sugar beet; PREEMERGENCE, Rate 2 g/ha",0
same,"Plant response rating (0 to 100), Sugar beet","sugar beet; Rate 8 g/ha, POSTEMERGENCE",100
same,"Plant response rating (0 to 100), Sugar beet","sugar beet; Rate 8 g/ha, PREEMERGENCE",30
same,"Plant response rating (0 to 100), Sugar beet","sugar beet; Rate 31 g/ha, POSTEMERGENCE",100
same,"Plant response rating (0 to 100), Sugar beet","sugar beet; Rate 31 g/ha, PREEMERGENCE",50
